Assay: phenyl-p-benzoquinone induced writhing test in mice (mouse antiphenylquinone writhing test), oral
Format: in vivo, mouse (male CF1)
Conditions: for % MICE BLOCKED: oral
Text: The phenyl-p-benzoquinone induced writhing test in mice [H. Blumberg et al., Proc. Soc. […] The method simply consists of reading the % ED50 DOSE for each dose ratio on the best fit regression analysis curve from the mouse isobologram, multiplying each component by its effective species dose, and then forming the ratio of the amount of nalbuphine to 4,5-bis(4-methoxyphenyl)-2-(trifluoromethylsulfonyl)-1 H-imidazole. […] [E. W. Pelikan, The Pharmacologist, 1, 73 (1959). ]
Male CF1 mice obtained from Charles River Breeding Laboratories, fasted for 16-22 hours and weighing 18-22 g at the time of testing are used throughout. All mice are dosed sequentially by the oral route with suspensions of 4,5-bis(4-methoxyphenyl)-2-(trifluoromethylsulfonyl)-1H-imidazole and/or of nalbuphine hydrochloride. A dosing volume of 10 ml/kg is used for each sequential solution or suspension. […] All doses are coded and the test is performed under a code not known to the observer.
A stock suspension of 4,5-bis(4-methoxyphenyl)-2-trifluoromethylsulfonyl)-1H-imidazole is prepared by mixing 8.0 mg 4,5-bis(4-methoxyphenyl)-2-(trifluoromethylsulfonyl)-1H-imidazole with 80 ml of an aqueous vehicle containing 2% by volume of Tween 80®, a pharmacological dispersant manufactured by Fisher Scientific Company and containing 100% polysorbate 80, and 1% by weight of Methocel® MC powder, a suspending agent manufactured by DOW Chemical Company and containing 100% methylcellulose, in distilled water. The mixture is sonicated at 150 watts for 1-2 minutes with an ultrasound system, then shaken for two hours at 280 oscillations/minute with 15-20 gm of glass beads. The resultant suspension contains 0.1 mg/ml of 4,5-bis(4-methoxyphenyl)-2-(trifluoromethylsulfonyl)-1H-imidazole; all dosing suspensions are prepared by dilution of the stock suspension with the Methocel®/Tween 80® vehicle; the vehicle control is Methocel®/Tween 80®. All suspensions are prepared fresh daily.
Stock solutions of nalbuphine HCl are prepared by dissolving dry nalbuphine hydrochloride powder with distilled water. All dosing solutions are prepared by dilution of the stock solution with distilled water; the vehicle control is distilled water.
As indicated above, the standard procedure based upon the prevention of phenyl-p-benzoquinone induced writhing in mice is utilized to detect and quantify the analgetic activity of compositions containing nalbuphine and 4,5-bis(4-methoxyphenyl)-2-(trifluoromethylsulfonyl)-1H-imidazole.
Mice, intubated with various doses of nalbuphine hydrochloride, 4,5-bis(4-methoxyphenyl)-2-(trifluoromethylsulfonyl)-1H-imidazole, combined doses of nalbuphine hydrochloride and 4,5-bis(4-methoxyphenyl)-2-(trifluoromethylsulfonyl)-1H-imidazole, or vehicle, are injected intraperitoneally with a challenge dose of phenyl-p-benzoquinone 5 minutes prior to the designated observation period. The phenyl-p-benzoquinone is prepared as an 0.1 mg/ml solution in 5% by volume of ethanol in water; the writhing dose is 1.25 mg/kg injected in a volume of 0.25 ml/20 g. For scoring purposes a "writhe" is indicated by whole body stretching or contraction of the abdomen; mice are observed 10 minutes for the presence or absence of writhing beginning 5 minutes after receiving the phenyl-p-benzoquinone dose. Each mouse is used only once, then discarded. […] This dosage as described herein is referred to as the ED50. All ED50 values and their 95% confidence limits are determined numerically by the computer-assisted methods of Finney. [D. J. Finney, "Probit Analysis," Third Edition, Cambridge University Press, Cambridge, England, 1971].

COc1ccc(-c2nc(S(=O)(=O)C(F)(F)F)[nH]c2-c2ccc(OC)cc2)cc1 [CII, 4,5-bis(4-methoxyphenyl)-2-(trifluoromethylsulfonyl)-1H-imidazole]
% MICE BLOCKED (40 min, CII 0.063 mg/kg): 10.0% | % MICE BLOCKED (40 min, CII 0.125 mg/kg): 46.7% | % MICE BLOCKED (40 min, CII 0.250 mg/kg): 73.3% | % MICE BLOCKED (40 min, CII 0.500 mg/kg): 93.3% | ED50 at 40 min, CII (40 min post oral dosing, CII part of the ED50 dose, N = 30 mice/dose): 0.161 mg/kg | % MICE BLOCKED (80 min, CII 0.03 mg/kg): 13.3% | % MICE BLOCKED (80 min, CII 0.06 mg/kg): 26.7% | % MICE BLOCKED (80 min, CII 0.12 mg/kg): 56.7% | % MICE BLOCKED (80 min, CII 0.24 mg/kg): 63.3% | ED50 at 80 min, CII (80 min post oral dosing, CII part of the ED50 dose, N = 30 mice/dose): 0.135 mg/kg

Oc1ccc2c3c1O[C@H]1[C@@H](O)CC[C@@]4(O)[C@@H](C2)N(CC2CCC2)CC[C@]314 [Nalbuphine, (-)-17-(cyclobutylmethyl)-4,5α-epoxymorphinan-3,6α,14-triol]
% MICE BLOCKED (40 min, nalbuphine HCl 5.85 mg/kg): 16.7% | % MICE BLOCKED (40 min, nalbuphine HCl 11.7 mg/kg): 30.0% | % MICE BLOCKED (40 min, nalbuphine HCl 23.4 mg/kg): 43.3% | % MICE BLOCKED (40 min, nalbuphine HCl 46.8 mg/kg): 70.0% | % MICE BLOCKED (40 min, nalbuphine HCl 93.6 mg/kg): 83.3% | ED50 at 40 min, nalbuphine HCl (40 min post oral dosing, nalbuphine HCl part of the ED50 dose, N = 30 mice/dose): 28.9 mg/kg | % MICE BLOCKED (80 min, nalbuphine HCl 24.5 mg/kg): 6.7% | % MICE BLOCKED (80 min, nalbuphine HCl 49 mg/kg): 26.7% | % MICE BLOCKED (80 min, nalbuphine HCl 98 mg/kg): 40.0% | % MICE BLOCKED (80 min, nalbuphine HCl 196 mg/kg): 56.7% | % MICE BLOCKED (80 min, nalbuphine HCl 392 mg/kg): 83.3% | ED50 at 80 min, nalbuphine HCl (80 min post oral dosing, nalbuphine HCl part of the ED50 dose, N = 30 mice/dose): 141 mg/kg
